Reference: publication PMC8400968, “Design, Synthesis, Biological Evaluation, and Computational Studies of Novel Tri-Aryl Imidazole-Benzene Sulfonamide Hybrids as Promising Selective Carbonic Anhydrase IX and XII Inhibitors” (Molecules, 2021)
Several values for one entry are separate records, joined by “and”; a condition that tells them apart may be missing. Equal values may be shown once. Read-outs that look alike come from different tables or passages of the source.

Columns and labels:
hCA II = molecular target: T1, hCA II (Homo sapiens, UniProt P00918); experiment: stopped-flow CO2 hydrase assay, hCA II; assay type: biochemical
T1 construct: made in house
Description: (§1) Newly synthesized hybrids 5a–n were tested for their inhibitory activity against four physiologically and pharmacologically CA isoforms, namely cytosolic hCA I and II, and tumor-associated isoforms hCA IX and XII, using a CO2 hydrase stop-flow assay. Acetazolamide (AAZ), clinically used sulphonamide, was used as the standard drug. […] The ability of imidazoles 5a–n toward inhibition of hCA I, II (cytosolic) as well as hCA IX and XII (transmembrane, tumor-associated isoforms) using stopped-flow CO2 hydrase assay was evaluated. See Appendix A.
(§2) The enzymes are recombinant proteins prepared in our lab. […] The uncatalyzed rates were determined in the same manner and subtracted from the total observed rates. Stock solutions of inhibitor (0.1 mM) were prepared in distilled-deionized water and dilutions up to 0.01 nM were done thereafter with the assay buffer. Inhibitor and enzyme solutions were preincubated together for 15 min at room temperature prior to assay, in order to allow for the formation of the E-I complex. The inhibition constants were obtained by non-linear least-squares methods using PRISM 3 and the Cheng-Prusoff equation, and represent the mean from at least three different determinations.

[1] = tested on: epithelial cancer cell line (A-549); experiment: Antiproliferative activity, MTT assay, A-549; assay type: cell-based; details: Homo sapiens, A549; A-549, MTT; read-out: Antiproliferative Activity IC50 ± SEM A-549
Description: (§3) The antiproliferative activity of 5b, 5d, 5e, 5g, 5j and 5n against four human cancer cell lines including pancreatic cancer cell line (Panc-1), breast cancer cell line (MCF-7), colon cancer cell line (HT-29) and epithelial cancer cell line (A-549) using MTT assay and doxorubicin was applied as the reference compound [22, 23]. Graph Pad Prism software (Graph Pad Software, San Diego, CA, USA) was used to calculate the median inhibition concentration (IC50) and results are recorded in Table 2.
(§4) The antiproliferative activity of 5b, 5d, 5e, 5g, 5j and 5n against four human cancer cell lines including pancreatic cancer cell line (Panc-1), breast cancer cell line (MCF-7), colon cancer cell line (HT-29) and epithelial cancer cell line (A-549) using MTT assay and doxorubicin was applied as the reference compound [22, 23]. See Appendix A.
(§5) To explore the antiproliferative potential of compounds MTT assay was performed according to previously reported procedure using different cell lines To explore the antiproliferative potential of compounds propidium iodide fluorescence assay was performed using different cell lines. To calculate the total nuclear DNA, a fluorescent dye (propidium iodide, PI) is used which can attach to the DNA, thus offering a quick and precise technique. PI cannot pass through the cell membrane and its signal intensity can be considered as directly proportional to quantity of cellular DNA. Cells whose cell membranes are damaged or have changed permeability are counted as dead ones. The assay was performed by seeding the cells of different cell lines at a density of 3000–7500 cells/well (in 200 µL medium) in culture plates followed by incubation for 24 h at 37 °C in humidified 5% CO2/95% air atmospheric conditions. The medium was removed; the compounds were added to the plates at 10 µM concentrations (in 0.1% DMSO) in triplicates, followed by incubation for 48 h. DMSO (0.1%) was used as control. After incubation, medium was removed followed by the addition of PI (25 µL, 50µg/mL in water/medium) to each well of the plates. At −80 °C, the plates were allowed to freeze for 24 h, followed by thawing at 25 °C. A fluorometer (Polar-Star BMG Tech, Offenburg, Germany) was used to record the readings at excitation and emission wavelengths of 530 and 620 nm for each well. The percentage cytotoxicity of compounds was calculated using the following formula: %Cytotoxicity=(Ac−Atc)/Ac×100 where Atc = Absorbance of treated cells and Ac = Absorbance of control. Erlotinib was used as positive control in the assay.

[2] = tested on: breast cancer cell line (MCF-7); experiment: Antiproliferative activity, MTT assay, MCF-7; assay type: cell-based; details: Homo sapiens, MCF7; MCF-7, MTT; read-out: Antiproliferative Activity IC50 ± SEM MCF-7
Description: as §3, §4, §5

[3] = Cell viability assay (MTT); assay type: cell-based; details: human, MCF-10A mammary gland epithelial cells, MCF-10A cells, incubated 4 days
Description: Cell viability assay was carried out using human mammary gland epithelial cell line (MCF-10A). MCF-10A cells were incubated with compounds 5b, 5d, 5e, 5g, 5j and 5n for 4 days and MTT assay was used to determine the viability of cells. See Appendix A.
MTT assay was carried out to study the effect of compounds on mammary epithelial cells (MCF-10A). The medium in which cells were propagated contained Dulbecco’s modified Eagle’s medium (DMEM)/Ham’s F-12 medium (1:1) supplemented with epidermal growth factor (20 ng/mL), hydrocortisone (500 ng/mL), insulin (10 μg/mL), 2 mM glutamine and 10% fetal calf serum. After every 2–3 days, the cells were passaged using trypsin ethylenediamine tetra acetic acid (EDTA). The cells were seeded at a density of 10^4 cells mL^−1 in flat-bottomed culture plates containing 96 wells each. After 24 h, medium was removed from the plates and the compounds in (in 0.1% DMSO) were added (in 200 μL medium to yield a final concentration of 0.1% v/v) to the wells of plates. A single compound was designated with four wells followed by incubation of plates for 96 h at 37 °C. After incubation, medium was removed completely from the plates followed by addition of MTT (0.4 mg/mL in medium) to each well and subsequent incubation of plates for 3 h. MTT (along with the medium) was removed and DMSO (150 μL) was added to each well of the culture plates, followed by vortexing and subsequent measurement of absorbance (at 540 nm) using microplate reader. The data are shown as percentage inhibition of proliferation in comparison with controls containing 0.1% DMSO.

[4] = tested on: four human cancer cell lines (Panc-1, MCF-7, HT-29, A-549); experiment: Antiproliferative activity, MTT assay, average of the four cell lines; assay type: cell-based; details: for IC50: average of A-549, MCF-7, Panc-1, HT-29
Description: as §3, §4, §5

hCA IX = molecular target: T2, hCA IX (Homo sapiens, UniProt Q16790); experiment: stopped-flow CO2 hydrase assay, hCA IX; assay type: biochemical; details: for IC50: quoted in docking discussion, read-out: IC50 CA-IX (in vitro inhibitory activity quoted in docking study); for Selectivity Ratio hCA XII/ hCA IX: selectivity for hCA IX over hCA XII; for Ki: stopped-flow CO2 hydrase assay
T2 construct: made in house
Description: as §1, §2

[5] = tested on: pancreatic cancer cell line (Panc-1); experiment: Antiproliferative activity, MTT assay, Panc-1; assay type: cell-based; details: Homo sapiens; Panc-1, MTT; read-out: Antiproliferative Activity IC50 ± SEM Panc-1
Description: as §3, §4, §5

hCA I = molecular target: T3, hCA I (Homo sapiens, UniProt P00915); experiment: stopped-flow CO2 hydrase assay, hCA I; assay type: biochemical
T3 construct: made in house
T3 sequence (P00915 whole entry): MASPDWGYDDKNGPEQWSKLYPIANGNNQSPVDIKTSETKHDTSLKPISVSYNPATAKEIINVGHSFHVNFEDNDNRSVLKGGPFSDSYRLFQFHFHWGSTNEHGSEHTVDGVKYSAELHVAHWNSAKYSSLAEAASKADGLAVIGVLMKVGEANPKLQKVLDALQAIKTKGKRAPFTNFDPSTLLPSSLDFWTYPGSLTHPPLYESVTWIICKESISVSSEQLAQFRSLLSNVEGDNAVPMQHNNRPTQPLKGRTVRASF
Description: as §1, §2

hCA XII = molecular target: T4, hCA XII (Homo sapiens, UniProt O43570); experiment: stopped-flow CO2 hydrase assay, hCA XII; assay type: biochemical
T4 construct: made in house
T4 sequence (O43570 25-354): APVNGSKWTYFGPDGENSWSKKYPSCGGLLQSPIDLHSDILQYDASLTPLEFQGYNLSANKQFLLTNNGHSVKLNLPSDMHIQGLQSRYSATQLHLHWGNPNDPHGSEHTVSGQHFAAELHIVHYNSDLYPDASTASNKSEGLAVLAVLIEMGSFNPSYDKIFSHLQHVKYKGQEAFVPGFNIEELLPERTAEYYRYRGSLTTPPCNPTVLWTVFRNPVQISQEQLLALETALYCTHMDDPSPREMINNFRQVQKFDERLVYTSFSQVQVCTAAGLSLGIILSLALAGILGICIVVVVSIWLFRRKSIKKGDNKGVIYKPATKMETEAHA
Description: Newly synthesized hybrids 5a–n were tested for their inhibitory activity against four physiologically and pharmacologically CA isoforms, namely cytosolic hCA I and II, and tumor-associated isoforms hCA IX and XII, using a CO2 hydrase stop-flow assay. Acetazolamide (AAZ), clinically used sulphonamide, was used as the standard drug. […]. The ortho substitution in the aryl moiety appears to correlate with higher inhibitory effects against both hCA IX and XII. […] […]. The ability of imidazoles 5a–n toward inhibition of hCA I, II (cytosolic) as well as hCA IX and XII (transmembrane, tumor-associated isoforms) using stopped-flow CO2 hydrase assay was evaluated. See Appendix A.
The carbonic anhydrase catalyzed CO2 hydration actions for all new compounds herein reported have were assayed utilizing an instrument of Applied Photophysics stopped-flow. The enzymes are recombinant proteins prepared in our lab. […]. The uncatalyzed rates were determined in the same manner and subtracted from the total observed rates. Stock solutions of inhibitor (0.1 mM) were prepared in distilled-deionized water and dilutions up to 0.01 nM were done thereafter with the assay buffer. Inhibitor and enzyme solutions were preincubated together for 15 min at room temperature prior to assay, in order to allow for the formation of the E-I complex. The inhibition constants were obtained by non-linear least-squares methods using PRISM 3 and the Cheng-Prusoff equation, and represent the mean from at least three different determinations.

[6] = tested on: colon cancer cell line (HT-29); experiment: Antiproliferative activity, MTT assay, HT-29; assay type: cell-based; details: Homo sapiens; HT-29, MTT; read-out: Antiproliferative Activity IC50 ± SEM HT-29
Description: as §3, §4, §5

[7] = four cancer cell lines, read-out: GI50
[8] = stopped-flow CO2 hydrase assay, read-out: Ki hCA I

Row | Compound | Ki (hCA II) [µM] | IC50 [1] [µM] | IC50 [2] [µM] | viability at 96 h [3] [%] | IC50 [4] [µM] | GI50 [4, 7] [µM] | IC50 (hCA IX) [µM] | Selectivity Ratio hCA XII/ hCA IX (hCA IX) | Ki (hCA IX) | IC50 [5] [µM] | Ki (hCA I; [8]) [µM] | Ki (hCA XII) [µM] | IC50 [6] [µM] | GI50 ([4]; mean of four cell lines, read-out: mean GI50 against the four cell lines) [µM] | melting point [°C] | Ki (hCA I) [µM]
1 | NS(=O)(=O)c1ccc(-n2c(-c3ccccc3Br)nc(-c3ccccc3)c2-c2ccccc2)cc1 [Compound 5b, 4-(2-(2-Bromophenyl)-4,5-diphenyl-1H-imidazol-1-yl)benzene sulfonamide] | > 100 | 2.8 ± 0.5 | 2.7 ± 0.4 | 91 | 2.8 | 2.8 | 0.36 | 11.50 | 0.36 µM and 0.4 µM | 2.5 ± 0.2 | > 100 | 4.6 | 3.1 ± 0.1 | – | – | –
2 | NS(=O)(=O)c1ccc(-n2c(-c3c(Cl)cccc3Cl)nc(-c3ccccc3)c2-c2ccccc2)cc1 [Compound 5d, 4-(2-(2,6-Dichlorophenyl)-4,5-diphenyl-1H-imidazol-1-yl)benzene sulfonamide] | > 100 | 3.1 ± 0.6 | 3.9 ± 0.4 | 87 | 3.5 | – | 0.72 | 7.00 | 0.72 µM and 0.7 µM | 3.8 ± 0.3 | – | 4.9 | 3.1 ± 0.4 | 3.5 | 214 to 216 | > 100
3 | NS(=O)(=O)c1ccc(-n2c(-c3ccccc3O)nc(-c3ccccc3)c2-c2ccccc2)cc1 [Compound 5e, 4-(2-(2-Hydroxyphenyl)-4,5-diphenyl-1H-imidazol-1-yl)benzene sulfonamide] | > 100 | 4.4 ± 0.7 | 3.6 ± 0.8 | 86 | 3.9 | – | – | 6.50 | 0.84 µM and 0.8 µM | 3.7 ± 0.5 | – | 5.2 | 3.9 ± 0.6 | – | – | > 100
4 | COc1ccccc1-c1nc(-c2ccccc2)c(-c2ccccc2)n1-c1ccc(S(N)(=O)=O)cc1 [Compound 5g, 4-(2-(2-Methoxyphenyl)-4,5-diphenyl-1H-imidazol-1-yl)benzene sulfonamide] | > 100 | 2.4 ± 0.5 | 2.1 ± 0.2 | 90 | 2.3 | 2.3 | 0.32 | 12.00 | 0.32 µM and 0.3 µM | 2.2 ± 0.4 | > 100 | 3.7 | 2.4 ± 0.4 | – | – | –
5 | NS(=O)(=O)c1ccc(-n2c(-c3ccccc3[N+](=O)[O-])nc(-c3ccccc3)c2-c2ccccc2)cc1 [Compound 5j, 4-(2-(2-Nitrophenyl)-4,5-diphenyl-1H-imidazol-1-yl)benzene sulfonamide] | > 100 | 4.6 ± 0.6 | 3.6 ± 0.2 | 88 | 4.4 | – | – | 5.60 | 1.1 µM | 4.6 ± 0.9 | – | 6.2 | 4.8 ± 0.4 | – | 280 to 282 | > 100
6 | NS(=O)(=O)c1ccc(-n2c(-c3cccs3)nc(-c3ccccc3)c2-c2ccccc2)cc1 [Compound 5n, 4-(4,5-Diphenyl-2-(thiophen-2-yl)-1H-imidazol-1-yl)benzene sulfonamide] | > 100 | 4.7 ± 0.6 | 4.6 ± 0.6 | 90 | 4.7 | – | – | 5.00 | 1.3 µM | 4.8 ± 0.3 | – | 6.4 | 4.8 ± 0.2 | – | 290 to 292 | > 100
